The text below walks through data of patent US20230365592A1 (Agios Pharmaceuticals, Inc., priority 2022, published 2023).

The target in the assay is T1, human PAH with the R408W mutation (Homo sapiens, UniProt P00439, R408W).
T1 construct: expressed in transfected cells
T1 sequence (P00439 1-452 R408W): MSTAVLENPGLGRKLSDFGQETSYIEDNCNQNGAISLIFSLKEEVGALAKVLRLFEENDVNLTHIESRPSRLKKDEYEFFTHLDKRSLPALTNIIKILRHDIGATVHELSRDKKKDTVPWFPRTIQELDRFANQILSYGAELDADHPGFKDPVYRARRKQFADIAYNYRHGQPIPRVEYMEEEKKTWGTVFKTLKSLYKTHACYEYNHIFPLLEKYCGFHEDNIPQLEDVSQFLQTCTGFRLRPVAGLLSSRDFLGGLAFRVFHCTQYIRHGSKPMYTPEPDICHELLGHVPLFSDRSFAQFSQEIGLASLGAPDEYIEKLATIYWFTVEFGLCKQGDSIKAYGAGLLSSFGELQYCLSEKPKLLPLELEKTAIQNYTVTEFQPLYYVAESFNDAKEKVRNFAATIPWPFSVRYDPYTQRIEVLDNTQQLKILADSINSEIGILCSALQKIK
Description: Cell Based Phenylalanine Flux Assay.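 Also: after compound treatment, cells received sepiapterin plus isotope-labelled Phenylalanine for 4 hours, then labelled Tyrosine in the medium was quantified, 10-point 2-fold dilution series run in duplicate.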 Particulars: A375 cells expressing human R408W PAH; 24 hrs compound incubation; 13C-Tyrosine by LC-MS; average where tested multiple times; read-out: AC50.
Description: Compounds were resuspended in DMSO, and 2-fold serial dilutions were performed to generate a 10-point dose curve. Compounds were added to plated cells in a total volume of 100 µl, and a final DMSO concentration of 0.5%. Each compound was tested in duplicate. Following compound addition, cells were placed in a 5% CO2, 37° C. tissue culture incubator for 24 hrs. After the incubation period, 20 µM sepiapterin and 800 µM 13C9,15N-Phenylalanine were added. After 4 hours, cell media was removed. An aliquot of 10 µl of cell media was combined with 200 µl of extraction buffer (80% acetonitrile/20% H2O) for each well. Determination of ^13C-Tyrosine concentration was assessed by liquid chromatography mass spectrometry.
Where a compound was tested multiple times, the average value of the tests is reported.

A word on the AC50: it is the midpoint of the concentration-response curve, whichever way the signal moves. For the compound `Cc1cccc2cc([C@H]3c4nc[nH]c4CCN3C(=O)c3nnc(-c4cnn(C(F)(F)F)c4)o3)nn12` [Example 1447, (R)-(4-(7-methylpyrazolo[1,5-a]pyridin-2-yl)-6,7-dihydro-1H-imidazo[4,5-c]pyridin-5(4H)-yl)(5-(1-(trifluoromethyl)-1H-pyrazol-4-yl)-1,3,4-oxadiazol-2-yl)methanone], the AC50 is greater than 5 µM.

Regarding `CC(C)c1nnc(C(=O)N2CCc3[nH]cnc3[C@H]2c2cc3ccccn3n2)o1` [Example 1448, (S)-(5-isopropyl-1,3,4-oxadiazol-2-yl)(4-(pyrazolo[1,5-a]pyridin-2-yl)-6,7-dihydro-1H-imidazo[4,5-c]pyridin-5(4H)-yl)methanone], the AC50 fell in the range of 0.5 to 1 µM.

On to `CC(C)c1nnc(C(=O)N2CCc3[nH]cnc3[C@@H]2c2cc3ccccn3n2)o1` [Example 1449, (R)-(5-isopropyl-1,3,4-oxadiazol-2-yl)(4-(pyrazolo(1,5-a]pyridin-2-yl)-6,7-dihydro-1H-imidazo[4,5-c]pyridin-5(4H)-yl)methanone], for which the concentration at half-maximal activity (AC50) fell in the range of 1 to 5 µM.

With `Cc1cccn2nc([C@@H]3c4nc[nH]c4CCN3C(=O)c3nnc(C(C)C)o3)cc12` [Example 1450, (S)-(5-isopropyl-1,3,4-oxadiazol-2-yl)(4-(4-methylpyrazolo[1,5-a]pyridin-2-yl)-6,7-dihydro-1H-imidazo[4,5-c]pyridin-5(4H)-yl)methanone], the concentration at half-maximal activity (AC50) was less than 0.5 µM.

As for `Cc1cccn2nc([C@H]3c4nc[nH]c4CCN3C(=O)c3nnc(C(C)C)o3)cc12` [Example 1451, (R)-(5-isopropyl-1,3,4-oxadiazol-2-yl)(4-(4-methylpyrazolo[1,5-a]pyridin-2-yl)-6,7-dihydro-1H-imidazo[4,5-c]pyridin-5(4H)-yl)methanone], the AC50 was greater than 5 µM.

Consider `CC(C)c1nnc(C(=O)N2CCc3[nH]cnc3[C@H]2c2cc3c(F)cccn3n2)o1` [Example 1452, (S)-(4-(4-fluoropyrazolo[1,5-a]pyridin-2-yl)-6,7-dihydro-1H-imidazo[4,5-c]pyridin-5(4H)-yl)(5-isopropyl-1,3,4-oxadiazol-2-yl)methanone], for which the AC50 is less than 0.5 µM.

Turning to `Clc1cccn2nc([C@H]3c4nc[nH]c4CCN3c3nnc(C4CC4)o3)cc12` [Example 1454, (R)-2-(4-(4-chloropyrazolo[1,5-a]pyridin-2-yl)-1,4,6,7-tetrahydro-5H-imidazo[4,5-c]pyridin-5-yl)-5-cyclopropyl-1,3,4-oxadiazole], the concentration at half-maximal activity (AC50) is greater than 5 µM.

For `Clc1cccn2nc([C@@H]3c4nc[nH]c4CCN3c3nnc(C4CC4)o3)cc12` [Example 1455, (S)-2-(4-(4-chloropyrazolo[1,5-a]pyridin-2-yl)-1,4,6,7-tetrahydro-5H-imidazo[4,5-c]pyridin-5-yl)-5-cyclopropyl-1,3,4-oxadiazole], the AC50 was less than 0.5 µM.

On to `Cn1ccc(-c2nnc(C(=O)N3CCc4[nH]cnc4[C@H]3c3cc4cccc(F)n4n3)o2)n1` [Example 1456, (S)-(4-(7-fluoropyrazolo[1,5-a]pyridin-2-yl)-6,7-dihydro-1H-imidazo[4,5-c]pyridin-5(4H)-yl)(5-(1-methyl-1H-pyrazol-3-yl)-1,3,4-oxadiazol-2-yl)methanone], for which the AC50 was less than 0.5 µM.

With `Cn1ccc(-c2nnc(C(=O)N3CCc4[nH]cnc4[C@@H]3c3cc4cccc(F)n4n3)o2)n1` [Example 1457, (R)-(4-(7-fluoropyrazolo[1,5-a]pyridin-2-yl)-6,7-dihydro-1H-imidazo[4,5-c]pyridin-5(4H)-yl)(5-(1-methyl-1H-pyrazol-3-yl)-1,3,4-oxadiazol-2-yl)methanone], the half-maximal activity concentration (AC50) is 1 to 5 µM.

Take `O=C(c1nnc(-c2ncccc2F)o1)N1CCc2[nH]cnc2[C@@H]1c1cc2cccc(F)n2n1` [Example 1458, (R)-(4-(7-fluoropyrazolo[1,5-a]pyridin-2-yl)-6,7-dihydro-1H-imidazo[4,5-c]pyridin-5(4H)-yl)(5-(3-fluoropyridin-2-yl)-1,3,4-oxadiazol-2-yl)methanone]: the AC50 was 1 to 5 µM.

Turning to `O=C(c1nnc(-c2ncccc2F)o1)N1CCc2[nH]cnc2[C@H]1c1cc2cccc(F)n2n1` [Example 1459, (S)-(4-(7-fluoropyrazolo[1,5-a]pyridin-2-yl)-6,7-dihydro-1H-imidazo[4,5-c]pyridin-5(4H)-yl)(5-(3-fluoropyridin-2-yl)-1,3,4-oxadiazol-2-yl)methanone], the half-maximal activity concentration (AC50) is less than 0.5 µM.

For `O=C(c1nnc(-c2cnccn2)o1)N1CCc2[nH]cnc2[C@H]1c1cc2cccc(F)n2n1` [Example 1461, (S)-(4-(7-fluoropyrazolo[1,5-a]pyridin-2-yl)-6,7-dihydro-1H-imidazo[4,5-c]pyridin-5(4H)-yl)(5-(pyrazin-2-yl)-1,3,4-oxadiazol-2-yl)methanone], the AC50 is 0.5 to 1 µM.

On to `Cc1c(-c2nnc(C(=O)N3CCc4[nH]cnc4[C@H]3c3cc4cccc(F)n4n3)o2)cnn1C` [Example 1462, (S)-(5-(1,5-dimethyl-1H-pyrazol-4-yl)-1,3,4-oxadiazol-2-yl)(4-(7-fluoropyrazolo[1,5-a]pyridin-2-yl)-6,7-dihydro-1H-imidazo[4,5-c]pyridin-5(4H)-yl)methanone], for which the half-maximal activity concentration (AC50) was less than 0.5 µM.

Take `Cc1c(-c2nnc(C(=O)N3CCc4[nH]cnc4[C@@H]3c3cc4cccc(F)n4n3)o2)cnn1C` [Example 1463, (R)-(5-(1,5-dimethyl-1H-pyrazol-4-yl)-1,3,4-oxadiazol-2-yl)(4-(7-fluoropyrazolo[1,5-a]pyridin-2-yl)-6,7-dihydro-1H-imidazo[4,5-c]pyridin-5(4H)-yl)methanone]: the concentration at half-maximal activity (AC50) is 1 to 5 µM.

`Cc1cccc(-c2nnc(C(=O)N3CCc4[nH]cnc4[C@@H]3c3cc4c(C(F)F)cccn4n3)o2)n1` [Example 1464, (R)-(4-(4-(difluoromethyl)pyrazolo[1,5-a]pyridin-2-yl)-6,7-dihydro-1H-imidazo[4,5-c]pyridin-5(4H)-yl)(5-(6-methylpyridin-2-yl)-1,3,4-oxadiazol-2-yl)methanone]: the half-maximal activity concentration (AC50) lay within 1 to 5 µM.

As to `Cc1cccc(-c2nnc(C(=O)N3CCc4[nH]cnc4[C@H]3c3cc4c(C(F)F)cccn4n3)o2)n1` [Example 1465, (S)-(4-(4-(difluoromethyl)pyrazolo[1,5-a]pyridin-2-yl)-6,7-dihydro-1H-imidazo[4,5-c]pyridin-5(4H)-yl)(5-(6-methylpyridin-2-yl)-1,3,4-oxadiazol-2-yl)methanone], the half-maximal activity concentration (AC50) was less than 0.5 µM.

As for `Cc1nn(C)cc1-c1nnc(C(=O)N2CCc3[nH]cnc3[C@@H]2c2cc3c(C(F)F)cccn3n2)o1` [Example 1467, (R)-(4-(4-(difluoromethyl)pyrazolo[1,5-a]pyridin-2-yl)-6,7-dihydro-1H-imidazo[4,5-c]pyridin-5(4H)-yl)(5-(1,3-dimethyl-1H-pyrazol-4-yl)-1,3,4-oxadiazol-2-yl)methanone], the concentration at half-maximal activity (AC50) lay in the range of 1 to 5 µM.

On to `O=C(c1nnc(-c2cccnc2)o1)N1CCc2[nH]cnc2[C@H]1c1cc2cccc(C(F)F)n2n1` [Example 1468, (S)-(4-(7-(difluoromethyl)pyrazolo[1,5-a]pyridin-2-yl)-6,7-dihydro-1H-imidazo[4,5-c]pyridin-5(4H)-yl)(5-(pyridin-3-yl)-1,3,4-oxadiazol-2-yl)methanone], for which the AC50 was less than 0.5 µM.

`O=C(c1nnc(-c2cccnc2)o1)N1CCc2[nH]cnc2[C@@H]1c1cc2cccc(C(F)F)n2n1` [Example 1469, (R)-(4-(7-(difluoromethyl)pyrazolo[1,5-a]pyridin-2-yl)-6,7-dihydro-1H-imidazo[4,5-c]pyridin-5(4H)-yl)(5-(pyridin-3-yl)-1,3,4-oxadiazol-2-yl)methanone]: the concentration at half-maximal activity (AC50) was greater than 5 µM.

As to `Cc1cccc(-c2nnc(C(=O)N3CCc4[nH]cnc4[C@H]3c3cc4c(F)cccn4n3)o2)n1` [Example 1470, (S)-(4-(4-fluoropyrazolo[1,5-a]pyridin-2-yl)-6,7-dihydro-1H-imidazo[4,5-c]pyridin-5(4H)-yl)(5-(6-methylpyridin-2-yl)-1,3,4-oxadiazol-2-yl)methanone], the AC50 was less than 0.5 µM.

Take `Cc1cccn2nc([C@@H]3c4nc[nH]c4CCN3C(=O)c3nnc(-c4cnn(C(F)(F)F)c4)o3)cc12` [Example 1472, (S)-(4-(4-methylpyrazolo[1,5-a]pyridin-2-yl)-6,7-dihydro-1H-imidazo[4,5-c]pyridin-5(4H)-yl)(5-(1-(trifluoromethyl)-1H-pyrazol-4-yl)-1,3,4-oxadiazol-2-yl)methanone]: the half-maximal activity concentration (AC50) was 0.5 to 1 µM.

In the case of `Cc1cccn2nc([C@H]3c4nc[nH]c4CCN3C(=O)c3nnc(-c4cnn(C(F)(F)F)c4)o3)cc12` [Example 1473, (R)-(4-(4-methylpyrazolo[1,5-a]pyridin-2-yl)-6,7-dihydro-1H-imidazo[4,5-c]pyridin-5(4H)-yl)(5-(1-(trifluoromethyl)-1H-pyrazol-4-yl)-1,3,4-oxadiazol-2-yl)methanone], the AC50 is 1 to 5 µM.

With `O=C(c1nnc(-c2ccn(C(F)(F)F)n2)o1)N1CCc2[nH]cnc2[C@@H]1c1cc2cccc(F)n2n1` [Example 1475, (R)-(4-(7-fluoropyrazolo[1,5-a]pyridin-2-yl)-6,7-dihydro-1H-imidazo[4,5-c]pyridin-5(4H)-yl)(5-(1-(trifluoromethyl)-1H-pyrazol-3-yl)-1,3,4-oxadiazol-2-yl)methanone], the AC50 is 1 to 5 µM.

`O=C(c1nnc(-c2ccn(C(F)(F)F)n2)o1)N1CCc2[nH]cnc2[C@@H]1c1cc2c(Cl)cccn2n1` [Example 1477, (R)-(4-(4-chloropyrazolo[1,5-a]pyridin-2-yl)-6,7-dihydro-1H-imidazo[4,5-c]pyridin-5(4H)-yl)(5-(1-(trifluoromethyl)-1H-pyrazol-3-yl)-1,3,4-oxadiazol-2-yl)methanone]: the AC50 fell in the range of 1 to 5 µM.
